In one assay the target is gene product of ygjG (Escherichia coli, UniProt P42588). To be noted: Samsonova et al., BMC Microbiology, 2003; cited from earlier work.
In assay [1] the test system is ω-transaminase of SEQ ID NO: 8. As to the kind of experiment: ω-transaminase activity, cadaverine to 5-aminopentanal. The class given is biochemical, Pseudomonas aeruginosa. Here is the method:
(§1) A sequence encoding an N-terminal His-tag was added to the Chromobacterium violaceum, Pseudomonas aeruginosa, Pseudomonas syringae and Escherichia coli genes encoding the ω-transaminases of SEQ ID NOs: 7, 8, 9 and 11, respectively (see FIG. 7) such that N-terminal HIS tagged ω-transaminases could be produced. The modified genes were cloned into a pET21a expression vector under the T7 promoter. Each expression vector was transformed into a BL21[DE3] E. coli host. Each resulting recombinant E. coli strain were cultivated at 37° C. in a 250 mL shake flask culture containing 50 mL LB media and antibiotic selection pressure, with shaking at 230 rpm. Each culture was induced overnight at 16° C. using 1 mM IPTG.
(§2) The pellet from each induced shake flask culture was harvested via centrifugation. Each pellet was resuspended and lysed via sonication. The cell debris was separated from the supernatant via centrifugation and the cell free extract was used immediately in enzyme activity assays.
(§3) Enzyme activity assays in the reverse direction (i.e., cadaverine to 5-aminopentanal) were performed in a buffer composed of a final concentration of 50 mM HEPES buffer (pH=7.5), 10 mM cadaverine, 10 mM pyruvate, and 100 μM pyridoxyl 5′ phosphate. […] The formation of L-alanine was quantified via RP-HPLC.

Assay [2] has as its target T1, ω-transaminase of SEQ ID NO: 11 (Escherichia coli, UniProt P42588).
T1 construct: His-tag (N); made in house; host or cells: E. coli BL21[DE3], pET21a; cell free extract used
The assay is described as above. The class given is biochemical. Here is the method: as §1, §2, §3

The test system of assay [3] is ω-transaminase of SEQ ID NO: 7. Described as above. The class given is biochemical, Chromobacterium violaceum. Here is the method:
as §1, §2, §3

Assay [4] relates to ω-transaminase of SEQ ID NO: 9. The assay is described as above. The class given is biochemical, Pseudomonas syringae. Here is the method: as §1, §2, §3
Assay [5] relates to ω-transaminase of SEQ ID NO: 12. As to the kind of experiment: ω-transaminase activity, 5-aminopentanol to 5-oxopentanol. The class given is biochemical, Vibrio Fluvialis. Here is the method:
(§4) A nucleotide sequence encoding an N-terminal His-tag was added to the Chromobacterium violaceum, Pseudomonas aeruginosa, Pseudomonas syringae, Rhodobacter sphaeroides, Escherichia coli and Vibrio Fluvialis genes encoding the ω-transaminases of SEQ ID NOs: 7-12 respectively (see FIG. 7) such that N-terminal HIS tagged ω-transaminases could be produced. The modified genes were cloned into a pET21a expression vector under the T7 promoter. Each expression vector was transformed into a BL21[DE3] E. coli host. Each resulting recombinant E. coli strain were cultivated at 37° C. in a 250 mL shake flask culture containing 50 mL LB media and antibiotic selection pressure, with shaking at 230 rpm. Each culture was induced overnight at 16° C. using 1 mM IPTG.
as §2
(§5) Enzyme activity assays in the reverse direction (i.e., 5-aminopentanol to 5-oxopentanol) were performed in a buffer composed of a final concentration of 50 mM HEPES buffer (pH=7.5), 10 mM 5-aminopentanol, 10 mM pyruvate, and 100 μM pyridoxyl 5′ phosphate. […] The formation of L-alanine was quantified via RP-HPLC.

The subject of assay [6] is ω-transaminase of SEQ ID NO: 9. Described as above. The class given is biochemical, Pseudomonas syringae. The protocol: as §4, §2, §5
For assay [7], the system named is ω-transaminase of SEQ ID NO: 10. Described as above. The class given is biochemical, Rhodobacter sphaeroides. The protocol:
as §4, §2, §5

Assay [8] deals with ω-transaminase of SEQ ID NO: 8. Described as above. The class given is biochemical, Pseudomonas aeruginosa. The protocol: as §4, §2, §5
The target in assay [9] is T1, ω-transaminase of SEQ ID NO: 11. The description is as above. The class given is biochemical. Here is the method:
as §4, §2, §5

For assay [10], the system named is ω-transaminase of SEQ ID NO: 7. Described as above. The class given is biochemical, Chromobacterium violaceum. Here is the method:
as §4, §2, §5

Assay [11] has as its system ω-transaminase of SEQ ID NO: 9. As to the kind of experiment: ω-transaminase activity, glutarate semialdehyde to 5-aminopentanoate (reverse direction). The class given is biochemical, Pseudomonas syringae. As to conditions: SEQ ID 9. The protocol: (§6) A sequence encoding an N-terminal His-tag was added to the genes from Chromobacterium violaceum and Pseudomonas syringae encoding the ω-transaminases of SEQ ID NOs: 7 and 9, respectively (see FIG. 7) such that N-terminal HIS tagged ω-transaminases could be produced. Each of the resulting modified genes was cloned into a pET21a expression vector under control of the T7 promoter and each expression vector was transformed into a BL21[DE3] E. coli host. The resulting recombinant E. coli strains were cultivated at 37° C. in a 250 mL shake flask culture containing 50 mL LB media and antibiotic selection pressure, with shaking at 230 rpm. Each culture was induced overnight at 16° C. using 1 mM IPTG.
as §2
Enzyme activity in the reverse direction (i.e., glutarate semialdehyde to 5-aminopentanoate) were performed in a buffer composed of a final concentration of 50 mM HEPES buffer (pH=7.5), 10 mM glutarate semialdehyde, 10 mM L-alanine and 100 μM pyridoxyl 5′ phosphate. […] The formation of pyruvate was quantified via RP-HPLC.

Assay [12] relates to ω-transaminase of SEQ ID NO: 7. The assay can be described thus: ω-transaminase activity, 5-aminopentanoate to glutarate semialdehyde (forward direction). The class given is biochemical, Chromobacterium violaceum. Here is the method:
as §6, §2
Enzyme activity assays in the forward direction (i.e., 5-aminopentanoate to glutarate semialdehyde) were performed in a buffer composed of a final concentration of 50 mM HEPES buffer (pH=7.5), 10 mM 5-aminopentanoate, 10 mM pyruvate and 100 μM pyridoxyl 5′ phosphate. […] The formation of L-alanine from pyruvate was quantified via RP-HPLC.

gene product of ygjG, sequence (P42588 whole entry): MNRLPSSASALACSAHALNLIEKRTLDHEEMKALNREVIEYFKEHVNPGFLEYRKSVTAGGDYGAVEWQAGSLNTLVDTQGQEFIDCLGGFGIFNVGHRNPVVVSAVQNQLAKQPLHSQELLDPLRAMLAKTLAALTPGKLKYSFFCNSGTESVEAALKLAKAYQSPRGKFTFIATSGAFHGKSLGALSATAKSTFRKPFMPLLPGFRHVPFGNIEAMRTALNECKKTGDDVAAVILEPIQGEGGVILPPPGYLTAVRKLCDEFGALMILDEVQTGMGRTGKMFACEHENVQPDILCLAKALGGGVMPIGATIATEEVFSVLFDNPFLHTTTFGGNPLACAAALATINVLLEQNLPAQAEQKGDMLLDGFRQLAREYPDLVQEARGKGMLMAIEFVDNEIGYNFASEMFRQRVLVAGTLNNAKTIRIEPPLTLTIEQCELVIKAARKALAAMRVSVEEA
T1 sequence (P42588 whole entry): as above

Turning to `NCCCCCN` [cadaverine], the “acceptance as diamine substrate” value on gene product of ygjG was “accepts”. Further, the “acceptance as substrate (conversion of pyruvate to L-alanine) vs empty vector control” value (“acceptance … vs empty vector control” for short) was “accepted cadaverine as substrate” in assay [1] (SEQ ID NO 8, 10 mM cadaverine, 10 mM pyruvate, pH 7.5, 25° C., 4 h, FIG. 14); “accepted cadaverine as substrate” in assay [2] (SEQ ID NO 11, 10 mM cadaverine, 10 mM pyruvate, pH 7.5, 25° C., 4 h, FIG. 14); “accepted cadaverine as substrate” in assay [3] (SEQ ID NO 7, 10 mM cadaverine, 10 mM pyruvate, pH 7.5, 25° C., 4 h, FIG. 14); “accepted cadaverine as substrate” in [4] (SEQ ID NO 9, 10 mM cadaverine, 10 mM pyruvate, pH 7.5, 25° C., 4 h, FIG. 14).
As to `NCCCCCO` [5-aminopentanol], the “acceptance … vs empty vector control” value is “accepted 5-aminopentanol as substrate” in [5] (SEQ ID NO 12, 10 mM 5-aminopentanol, 10 mM pyruvate, pH 7.5, 25° C., 4 h, FIG. 13); “accepted 5-aminopentanol as substrate” in assay [6] (SEQ ID NO 9, 10 mM 5-aminopentanol, 10 mM pyruvate, pH 7.5, 25° C., 4 h, FIG. 13); “accepted 5-aminopentanol as substrate” in assay [7] (SEQ ID NO 10, 10 mM 5-aminopentanol, 10 mM pyruvate, pH 7.5, 25° C., 4 h, FIG. 13); “accepted 5-aminopentanol as substrate” in assay [8] (SEQ ID NO 8, 10 mM 5-aminopentanol, 10 mM pyruvate, pH 7.5, 25° C., 4 h, FIG. 13); “accepted 5-aminopentanol as substrate” in assay [9] (SEQ ID NO 11, 10 mM 5-aminopentanol, 10 mM pyruvate, pH 7.5, 25° C., 4 h, FIG. 13); “accepted 5-aminopentanol as substrate” in [10] (SEQ ID NO 7, 10 mM 5-aminopentanol, 10 mM pyruvate, pH 7.5, 25° C., 4 h, FIG. 13).
On to `NCCCCN` [putrescine], for which the “acceptance as diamine substrate” value on gene product of ygjG is “accepts”.
Regarding `NCCCCNCCCN` [spermidine], the “acceptance as diamine substrate” value on gene product of ygjG is recorded as “accepts”.
As for `NCCCCC(=O)O` [5-aminopentanoate], the “acceptance as substrate, forming 5-oxopentanoate, concluded from reversibility of the ω-transaminase activity” value in [11] and in assay [12] (SEQ ID 7) was “accept 5-aminopentanoate as substrate” in each case. The “acceptance … vs empty vector control” value in [12] (cell free extract, 10 mM 5-aminopentanoate, 10 mM pyruvate, pH 7.5, 25° C., 4 h, RP-HPLC, FIG. 8) was “accepted 5-aminopentanoate as substrate”.
Take `NCCCCC=O` [5-aminopentanal]: the “acceptance as substrate, forming cadaverine, concluded from reversibility of the ω-transaminase activity” value in [1] (SEQ ID 8), in [2] (SEQ ID 11), in assay [3] (SEQ ID 7) and in assay [4] (SEQ ID 9) was “accept 5-aminopentanal as substrate” in each case.
As to `O=CCCCCO` [5-oxopentanol], the “acceptance as substrate, forming 5-aminopentanol, concluded from reversibility of the ω-transaminase activity” value in [5] (SEQ ID 12), in assay [6] (SEQ ID 9), in assay [7] (SEQ ID 10), in assay [8] (SEQ ID 8), in assay [9] (SEQ ID 11) and in [10] (SEQ ID 7) was “accept 5-oxopentanol as substrate” each time.

Values taken from US20150111262A1, “METHODS AND MATERIALS FOR PRODUCING FIVE CARBON BUILDING BLOCKS FROM PROLINE” (INVISTA North America S.á r.l., priority 2013, published 2015).
